What was measured:
Assay in all cases: relative viability (nuclei count vs DMSO), 5 days (fraction); higher = more cells survive
NCI-H2023 = system: NCI-H2023
Summary of the method: (§1)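 Cells from lung cancer lines were seeded into 1536-well plates and, one day later, dosed by pin tool. Treatments were either a single drug or a fixed dose of an anchor drug with five library-drug doses (not always all listed) in √10 steps. After 5 days, nuclei were stained in a one-step fixation (final 0.05% Triton X-100, 1% formaldehyde, 1 ug/ml Hoechst) and counted on 4× images, and relative viability is the treated-to-vehicle nuclei ratio, as the median of duplicate plates.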

NCI-H2085 = system: NCI-H2085
Summary of the method: as §1

NCI-H2170 = system: NCI-H2170
Summary of the method: as §1

NCI-H2347 = system: NCI-H2347
Summary of the method: as §1

NCI-H2405 = system: NCI-H2405
Summary of the method: as §1

NCI-H3122 = system: NCI-H3122
Summary of the method: as §1

NCI-H441 = system: NCI-H441
Summary of the method: as §1

NCI-H520 = system: NCI-H520
Summary of the method: as §1

NCI-H647 = system: NCI-H647
Summary of the method: as §1

PC-14 = system: PC-14
Summary of the method: as §1

RERF-LC-KJ = system: RERF-LC-KJ
Summary of the method: as §1

SW 900 = system: SW 900
Summary of the method: as §1

`COc1cc(N2CCC(C(N)=O)CC2)ccc1Nc1nc(N)c(Cl)c(Nc2ccccc2S(=O)(=O)C(C)C)n1` [HG-5-88-01] + O=C(CCCCCCC(=O)Nc1ccccc1)NO [Vorinostat] (partner 1 µM) gave a relative viability (NCI-H2023; first compound 1.265 µM) of 0.425, a relative viability (NCI-H2023; first compound 4 µM) of 0.436 and a relative viability (NCI-H2085; first compound 0.04 µM) of 0.825. The relative viability (NCI-H2085; first compound 0.1265 µM) was 0.846, the relative viability (NCI-H2085; first compound 0.4 µM) was 0.729 and the relative viability (NCI-H2085; first compound 1.265 µM) was 0.791. The relative viability (NCI-H2085; first compound 4 µM) was 0.758, the relative viability (NCI-H2170; first compound 0.04 µM) was 0.837 and the relative viability (NCI-H2170; first compound 0.1265 µM) was 0.9. The relative viability (NCI-H2170; first compound 0.4 µM) was 0.773, the relative viability (NCI-H2170; first compound 1.265 µM) was 0.594 and the relative viability (NCI-H2170; first compound 4 µM) was 0.892. For the same molecule, the relative viability (NCI-H2347; first compound 0.04 µM) was 0.52, the relative viability (NCI-H2347; first compound 0.1265 µM) was 0.544 and the relative viability (NCI-H2347; first compound 0.4 µM) was 0.731. It also gave a relative viability (NCI-H2347; first compound 1.265 µM) of 0.553, a relative viability (NCI-H2347; first compound 4 µM) of 0.577 and a relative viability (NCI-H2405; first compound 0.04 µM) of 1.07. For the same molecule, the relative viability (NCI-H2405; first compound 0.1265 µM) was 1.06, the relative viability (NCI-H2405; first compound 0.4 µM) was 0.895 and the relative viability (NCI-H2405; first compound 1.265 µM) was 1.03. It also gave a relative viability (NCI-H2405; first compound 4 µM) of 1.02, a relative viability (NCI-H3122; first compound 0.04 µM) of 0.731 and a relative viability (NCI-H3122; first compound 0.1265 µM) of 0.438. The relative viability (NCI-H3122; first compound 0.4 µM) was 0.195, the relative viability (NCI-H3122; first compound 1.265 µM) was 0.218 and the relative viability (NCI-H3122; first compound 4 µM) was 0.158. The relative viability (NCI-H441; first compound 0.04 µM) was 0.779, the relative viability (NCI-H441; first compound 0.1265 µM) was 0.736 and the relative viability (NCI-H441; first compound 0.4 µM) was 0.678. The relative viability (NCI-H441; first compound 1.265 µM) was 0.865, the relative viability (NCI-H441; first compound 4 µM) was 0.725 and the relative viability (NCI-H520; first compound 0.04 µM) was 0.747. It also gave a relative viability (NCI-H520; first compound 0.1265 µM) of 0.601, a relative viability (NCI-H520; first compound 0.4 µM) of 0.803 and a relative viability (NCI-H520; first compound 1.265 µM) of 0.79. For the same molecule, the relative viability (NCI-H520; first compound 4 µM) was 0.781, the relative viability (NCI-H647; first compound 0.04 µM) was 0.522 and the relative viability (NCI-H647; first compound 0.1265 µM) was 0.813. It also gave a relative viability (NCI-H647; first compound 1.265 µM) of 0.774, a relative viability (NCI-H647; first compound 4 µM) of 0.86 and a relative viability (PC-14; first compound 0.04 µM) of 0.813. For the same molecule, the relative viability (PC-14; first compound 0.1265 µM) was 0.759, the relative viability (PC-14; first compound 0.4 µM) was 0.656 and the relative viability (PC-14; first compound 1.265 µM) was 0.261. For the same molecule, the relative viability (PC-14; first compound 4 µM) was 0.155, the relative viability (RERF-LC-KJ; first compound 0.04 µM) was 0.73 and the relative viability (RERF-LC-KJ; first compound 0.1265 µM) was 0.703. The relative viability (RERF-LC-KJ; first compound 0.4 µM) was 0.624, the relative viability (RERF-LC-KJ; first compound 1.265 µM) was 0.691 and the relative viability (RERF-LC-KJ; first compound 4 µM) was 0.405. For the same molecule, the relative viability (SW 900; first compound 0.04 µM) was 0.583, the relative viability (SW 900; first compound 0.1265 µM) was 0.334 and the relative viability (SW 900; first compound 0.4 µM) was 0.525. The relative viability (SW 900; first compound 1.265 µM) was 0.447 and the relative viability (SW 900; first compound 4 µM) was 0.354.

Source: the supplement of paper PMC10307832
